This assay relates to AsPC-1 cells. As to the kind of experiment: Cell Proliferation Assay, AsPC-1 (CellTiter-Glo 2.0 viability). It counts as cell-based. To be noted: Homo sapiens, ASPC1, 72 h, AsPC-1 pancreatic cancer (KRAS G12D mutation). As for the experimental part: Test Example 3: Cell Proliferation Assay
Cell viability testing of test compounds in AsPC-1 pancreatic cancer (KRAS G12D mutation) or SW480 colon cancer (KRAS G12V mutation) cells for 72 hours
The reference compound Staurosporine was purchased from Sigma-Aldrich (Saint Louis, MI), and CellTiter-Glo® 2.0 Luminescent cell viability assay reagent (cat #G9243) was purchased from Promega (Madison, WI). AsPC-1 and SW480 cell lines were purchased from American Type Culture Collection (Manassas, VA). AsPC-1 cells were cultured with RPMI-1640 (ATCC, cat #30-2001) and SW480 cells were cultured with DMEM (ATCC cat #30-2002).
A medium supplemented with 10% FBS (Sigma-Aldrich, cat #F2442) and 100 µg/mL of penicillin-streptomycin (Sigma-Aldrich, cat #P4333) was used. Cells were cultured at 37 °C in a humidified atmosphere of 5% CO2 and 95% air.
• 1. The test compound and reference compound, Staurosporine were dissolved in DMSO solution to prepare 20 mM (test compound) and 10 mM (control compound, Staurosporine) in the Source Plate and diluted with DMSO to 3-fold and 10 doses. • 2. From the Source Plate, 10 volumes of 125 nL test compound or 25 nL reference compound were dispensed into wells of a 384-well culture plate (VWR, cat #82050-076) using Echo 655. • 3. 25 μL of culture medium including 2000 AsPC-1 or SW480 cells was dispensed into each 384-well cell culture plate. • 4. Cells were cultured with the compound for 72 hours at 37 °C and 5% CO2 conditions. • 5. 25 μL of CellTiter-Glo 2.0 reagent was added to each well of the plate. • 6. The contents were mixed for 2 minutes on an orbital shaker, and the luminescence signal was stabilized at room temperature for 15 minutes. • 7. Luminescence signals were measured with an Envision 2104 Multilabel Reader (PerkinElmer, Santa Clara, CA), and the number of surviving cells was determined through quantification of ATP present in each culture. • 8. IC50 values were calculated based on the Sigmoidal dose-response equation in the GraphPad Prism 4 program.
Background: Cellular ATP, detected with luciferase, serves as a proxy for viable cell number.

By IC50 is commonly meant the concentration that gives 50% inhibition. A high value points to weaker potency in that assay. Compound `C#Cc1c(F)ccc2cc(O)cc(-c3nc4c5c(nc(OCC6CC(F)(F)CN6C)nc5c3F)N(C(C)c3cccnc3N)C[C@H](C)O4)c12` (stereo partly drawn) [Example 7, 4-((8S)-10-(1-(2-aminopyridin-3-yl)ethyl)-2-((4,4-difluoro-1-methylpyrrolidin-2-yl)methoxy)-4-fluoro-8-methyl-9,10-dihydro-8H-7-oxa-1,3,6,10-tetraazacyclohepta[de]naphthalen-5-yl)-5-ethynyl-6-fluoronaphthalen-2-ol] came in with an IC50 above 10 µM.

As for `C#Cc1c(F)ccc2cc(O)cc(-c3nc4c5c(nc(OCC6(CN7CCOCC7)CC6)nc5c3F)N(C(C)c3cccnc3N)C[C@H](C)O4)c12` (stereo partly drawn) [Example 5, 4-((8S)-10-(1-(2-aminopyridin-3-yl)ethyl)-4-fluoro-8-methyl-2-((1-(morpholinomethyl)cyclopropyl)methoxy)-9,10-dihydro-8H-7-oxa-1,3,6,10-tetraazacyclohepta[de]naphthalen-5-yl)-5-ethynyl-6-fluoronaphthalen-2-ol], the IC50 was above 10 µM.

`C#Cc1c(F)ccc2cc(O)cc(-c3nc4c5c(nc(OC[C@@H]6CCN6CC(F)F)nc5c3F)N(C(C)c3cccnc3N)C[C@H](C)O4)c12` (stereo partly drawn) [Example 8, 4-((8S)-10-(1-(2-aminopyridin-3-yl)ethyl)-2-(((S)-1-(2,2-difluoroethyl)azetidin-2-yl)methoxy)-4-fluoro-8-methyl-9,10-dihydro-8H-7-oxa-1,3,6,10-tetraazacyclohepta[de]naphthalen-5-yl)-5-ethynyl-6-fluoronaphthalen-2-ol] showed an IC50 above 10 µM.

`CCc1c(F)ccc2cc(O)cc(-c3nc4c5c(nc(OC[C@@H]6CCCN6CC(F)F)nc5c3F)N(C(C)c3cccnc3N)CCO4)c12` (stereo partly drawn) [Example 27, 4-(10-(1-(2-aminopyridin-3-yl)ethyl)-2-(((S)-1-(2,2-difluoroethyl)pyrrolidin-2-yl)methoxy)-4-fluoro-9,10-dihydro-8H-7-oxa-1,3,6,10-tetraazacyclohepta[de]naphthalen-5-yl)-5-ethyl-6-fluoronaphthalen-2-ol] showed an IC50 above 10 µM.

In turn, `CCc1c(F)ccc2cc(O)cc(-c3nc4c5c(nc(OC[C@@]67CCCN6C[C@H](F)C7)nc5c3F)N([C@@H](C)c3cccnc3N)CCO4)c12` [Example 14b, 4-(10-((S)-1-(2-aminopyridin-3-yl)ethyl)-4-fluoro-2-(((2R,7aS)-2-fluorotetrahydro-1H-pyrrolizin-7a(5H)-yl)methoxy)-9,10-dihydro-8H-7-oxa-1,3,6,10-tetraazacyclohepta[de]naphthalen-5-yl)-5-ethyl-6-fluoronaphthalen-2-ol] had an IC50 of 1 to 10 µM.

Compound `C#Cc1c(F)ccc2cc(O)cc(-c3nc4c5c(nc(OC[C@@]67CCCN6C[C@H](F)C7)nc5c3F)N(C(C)c3cccnc3N)C[C@H](C)O4)c12` (mixture of isomers) [Example 6, 4-((8S)-10-(1-(2-aminopyridin-3-yl)ethyl)-4-fluoro-2-(((2R,7aS)-2-fluorotetrahydro-1H-pyrrolizin-7a(5H)-yl)methoxy)-8-methyl-9,10-dihydro-8H-7-oxa-1,3,6,10-tetraazacyclohepta[de]naphthalen-5-yl)-5-ethynyl-6-fluoronaphthalen-2-ol] showed an IC50 of 1 to 10 µM.

In turn, `C[C@H]1CN([C@@H](C)c2cccnc2N)c2nc(OC[C@@]34CCCN3C[C@H](F)C4)nc3c(F)c(-c4cc(O)cc5ccc(F)c(F)c45)nc(c23)O1` [Example 10b, 4-((S)-10-((S)-1-(2-aminopyridin-3-yl)ethyl)-4-fluoro-2-(((2R,7aS)-2-fluorotetrahydro-1H-pyrrolizin-7a(5H)-yl)methoxy)-8-methyl-9,10-dihydro-8H-7-oxa-1,3,6,10-tetraazacyclohepta[de]naphthalen-5-yl)-5,6-difluoronaphthalen-2-ol] gave an IC50 above 10 µM.

Compound `CCc1c(F)ccc2cc(O)cc(-c3nc4c5c(nc(OC[C@@]67CCCN6C[C@H](F)C7)nc5c3F)N(C)CCO4)c12` [Example 28, 5-ethyl-6-fluoro-4-(4-fluoro-2-(((2R,7aS)-2-fluorotetrahydro-1H-pyrrolizin-7a(5H)-yl)methoxy)-10-methyl-9,10-dihydro-8H-7-oxa-1,3,6,10-tetraazacyclohepta[de]naphthalen-5-yl)naphthalen-2-ol] yielded an IC50 above 10 µM.

In the case of `CCc1c(F)ccc2cc(O)cc(-c3nc4c5c(nc(OC[C@@]67CCCN6C[C@H](F)C7)nc5c3F)N(C(C)c3ccccc3N)CCO4)c12` (stereo partly drawn) [Example 21, 4-(10-(1-(2-aminophenyl)ethyl)-4-fluoro-2-(((2R,7aS)-2-fluorotetrahydro-1H-pyrrolizin-7a(5H)-yl)methoxy)-9,10-dihydro-8H-7-oxa-1,3,6,10-tetraazacyclohepta[de]naphthalen-5-yl)-5-ethyl-6-fluoronaphthalen-2-ol], the IC50 is above 10 µM.

Compound `CC(c1cccnc1N)N1C[C@H](C)Oc2nc(-c3cc(O)cc(Cl)c3C3CC3)c(F)c3nc(OC[C@@]45CCCN4C[C@H](F)C5)nc1c23` (stereo partly drawn) [Example 11, 3-((8S)-10-(1-(2-aminopyridin-3-yl)ethyl)-4-fluoro-2-(((2R,7aS)-2-fluorotetrahydro-1H-pyrrolizin-7a(5H)-yl)methoxy)-8-methyl-9,10-dihydro-8H-7-oxa-1,3,6,10-tetraazacyclohepta[de]naphthalen-5-yl)-5-chloro-4-cyclopropylphenol] showed a half-inhibitory concentration (IC50) above 10 µM.

For `C#Cc1c(F)ccc2cc(O)cc(-c3nc4c5c(nc(OC[C@@]67CCCN6C[C@H](F)C7)nc5c3F)N([C@@H](C)c3cccnc3N)C[C@H](C)O4)c12` [Example 6b, 4-((S)-10-((S)-1-(2-aminopyridin-3-yl)ethyl)-4-fluoro-2-(((2R,7aS)-2-fluorotetrahydro-1H-pyrrolizin-7a(5H)-yl)methoxy)-8-methyl-9,10-dihydro-8H-7-oxa-1,3,6,10-tetraazacyclohepta[de]naphthalen-5-yl)-5-ethynyl-6-fluoronaphthalen-2-ol], the IC50 is above 10 µM.

In turn, `C#Cc1c(F)ccc2cc(O)cc(-c3nc4c5c(nc(OCC67COC(C6)C7)nc5c3F)N(C(C)c3cccnc3N)C[C@H](C)O4)c12` (stereo partly drawn) [Example 9, 4-((8S)-2-((2-oxabicyclo[2.1.1]hexan-4-yl)methoxy)-10-(1-(2-aminopyridin-3-yl)ethyl)-4-fluoro-8-methyl-9,10-dihydro-8H-7-oxa-1,3,6,10-tetraazacyclohepta[de]naphthalen-5-yl)-5-ethynyl-6-fluoronaphthalen-2-ol] had an IC50 of 1 to 10 µM.

`C#Cc1c(F)ccc2cc(O)cc(-c3nc4c5c(nc(OCC67CC(=C)CN6CC(=C)C7)nc5c3F)N(C(C)c3cccnc3N)C[C@H](C)O4)c12` (stereo partly drawn) [Example 4, 4-((8S)-10-(1-(2-aminopyridin-3-yl)ethyl)-2-((2,6-dimethylenetetrahydro-1H-pyrrolizin-7a(5H)-yl)methoxy)-4-fluoro-8-methyl-9,10-dihydro-8H-7-oxa-1,3,6,10-tetraazacyclohepta[de]naphthalen-5-yl)-5-ethynyl-6-fluoronaphthalen-2-ol] came in with an IC50 above 10 µM.

The compound `C=C1CN2CC(=C)CC2(COc2nc3c4c(nc(-c5cc(O)cc6ccc(F)c(CC)c56)c(F)c4n2)OCCN3C(C)c2cccnc2N)C1` (stereo not shown) [Example 19, 4-(10-(1-(2-aminopyridin-3-yl)ethyl)-2-((2,6-dimethylenetetrahydro-1H-pyrrolizin-7a(5H)-yl)methoxy)-4-fluoro-9,10-dihydro-8H-7-oxa-1,3,6,10-tetraazacyclohepta[de]naphthalen-5-yl)-5-ethyl-6-fluoronaphthalen-2-ol] yielded a concentration for half-maximal inhibition (IC50) of 1 to 10 µM.

The compound `CCc1c(F)ccc2cc(O)cc(-c3nc4c5c(nc(OCC6(CN7CC[C@@H](F)C7)CC6)nc5c3F)N(C(C)c3cccnc3N)CCO4)c12` (stereo partly drawn) [Example 26, 4-(10-(1-(2-aminopyridin-3-yl)ethyl)-4-fluoro-2-((1-(((R)-3-fluoropyrrolidin-1-yl)methyl)cyclopropyl)methoxy)-9,10-dihydro-8H-7-oxa-1,3,6,10-tetraazacyclohepta[de]naphthalen-5-yl)-5-ethyl-6-fluoronaphthalen-2-ol] displayed an IC50 of 1 to 10 µM.

Compound `C#Cc1c(F)ccc2cc(O)cc(-c3nc4c5c(nc(OC[C@@H]6CC(F)(F)CN6C)nc5c3F)N(C(C)c3cccnc3N)CCO4)c12` (stereo partly drawn) [Example 15, 4-(10-(1-(2-aminopyridin-3-yl)ethyl)-2-(((S)-4,4-difluoro-1-methylpyrrolidin-2-yl)methoxy)-4-fluoro-9,10-dihydro-8H-7-oxa-1,3,6,10-tetraazacyclohepta[de]naphthalen-5-yl)-5-ethynyl-6-fluoronaphthalen-2-ol] yielded an IC50 of 1 to 10 µM.

Source of the values: US20260374781A1, “NOVEL TRIHETEROCYCLIC COMPOUNDS” (IDENCE CO., LTD., priority 2022, published 2026).
